Assay results taken from patent publication US7396837B2, “Antitumoral analogs of lamellarins” (Pharma Mar, S.A.U., priority 2002, dated 2008).
Where two headings read alike, the source gives them in different places.

Key:
Assay type in all cases: cell-based
HeLa-APL = assay: SRB colorimetric cell growth inhibition assay, HeLa-APL (aplidine resistant); conditions: for GI50: read-out: GI50 HELA-APL
Summary of the method: (§1)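 Human tumour cells continuously exposed to compound in 96-well culture; growth and viability quantified colorimetrically by sulforhodamine B staining. Mean ± SD from triplicate wells; GI (growth inhibition), TGI (total growth inhibition, cytostatic) and LC (cell killing, cytotoxic) parameters derived.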

K-562 = assay: SRB colorimetric cell growth inhibition assay, K-562; conditions: for GI50: GI=growth inhibition, read-out: GI50 K-562
Summary of the method: as §1

IGROV = assay: SRB colorimetric cell growth inhibition assay, IGROV; conditions: IGROV; for GI50: GI=growth inhibition, read-out: GI50 IGROV
Summary of the method: as §1

LoVo-Dox = assay: SRB colorimetric cell growth inhibition assay, LoVo-Dox (MDR); conditions: for GI50: GI=growth inhibition, read-out: GI50 LOVO-DOX
Summary of the method: as §1

HeLa = assay: SRB colorimetric cell growth inhibition assay, HeLa; conditions: for GI50: GI=growth inhibition, read-out: GI50 HELA
Summary of the method: as §1

LNCaP = assay: SRB colorimetric cell growth inhibition assay, LNCaP; conditions: for GI50: GI=growth inhibition, read-out: GI50 LN-caP
Summary of the method: as §1

HT-29 = assay: SRB colorimetric cell growth inhibition assay, HT-29; conditions: for GI50: GI=growth inhibition, read-out: GI50 HT-29
Summary of the method: as §1

PANC-1 = assay: SRB colorimetric cell growth inhibition assay, PANC-1; conditions: for GI50: GI=growth inhibition, read-out: GI50 PANC-1
Summary of the method: as §1

SK-BR-3 = assay: SRB colorimetric cell growth inhibition assay, SK-BR-3; conditions: for GI50: GI=growth inhibition, read-out: GI50 SK-BR-3
Summary of the method: as §1

A-549 = assay: SRB colorimetric cell growth inhibition assay, A-549; conditions: for GI50: GI=growth inhibition, read-out: GI50 A-549
Summary of the method: as §1

DU-145 = assay: SRB colorimetric cell growth inhibition assay, DU-145; conditions: for GI50: GI=growth inhibition, read-out: GI50 DU-145
Summary of the method: as §1

SK-MEL-28 = assay: SRB colorimetric cell growth inhibition assay, SK-MEL-28; conditions: for GI50: GI=growth inhibition, read-out: GI50 MEL-28
Summary of the method: as §1

LoVo = assay: SRB colorimetric cell growth inhibition assay, LoVo; conditions: for GI50: GI=growth inhibition, read-out: GI50 LOVO
Summary of the method: as §1

IGROV-ET = assay: SRB colorimetric cell growth inhibition assay, IGROV-ET (ET-743 resistant); conditions: for GI50: GI=growth inhibition, read-out: GI50 IGROV-ET
Summary of the method: as §1

## COc1cc(-c2c3c4cc(OC)c(OC(=O)[C@H](C)N)cc4oc(=O)c3n3ccc4cc(O)c(OC)cc4c23)ccc1O.Cl [Compound 240]
HeLa-APL; HELA-APL, GI=growth inhibition
  GI50: 0.341 µM
HeLa-APL; HELA-APL, cell killing (cytotoxic effect), read-out: LC50 HELA-APL
  CC50: 7.61 µM
HeLa-APL; HELA-APL, total growth inhibition (cytostatic effect)
  TGI HELA-APL: 1.40E−06 Molar
K-562; K-562
  GI50: 0.124 µM
K-562; K-562, cell killing (cytotoxic effect), read-out: LC50 K-562
  CC50: 2.09 µM
K-562; K-562, total growth inhibition (cytostatic effect)
  TGI K-562: 4.50E−07 Molar
IGROV
  GI50: 0.136 µM
IGROV; cell killing (cytotoxic effect), read-out: LC50 IGROV
  CC50: 3.64 µM
IGROV; total growth inhibition (cytostatic effect)
  TGI IGROV: 5.22E−07 Molar
LoVo-Dox; LOVO-DOX
  GI50: 0.461 µM
LoVo-Dox; LOVO-DOX, cell killing (cytotoxic effect), read-out: LC50 LOVO-DOX
  CC50: 16.5 µM
LoVo-Dox; LOVO-DOX, total growth inhibition (cytostatic effect)
  TGI LOVO-DOX: 1.15E−06 Molar
HeLa; HELA
  GI50: 0.0575 µM
HeLa; HELA, cell killing (cytotoxic effect), read-out: LC50 HELA
  CC50: 1.4 µM
HeLa; HELA, total growth inhibition (cytostatic effect)
  TGI HELA: 1.49E−07 Molar
LNCaP; LN-caP
  GI50: 4.09 µM
LNCaP; LN-caP, cell killing (cytotoxic effect), read-out: LC50 LN-caP
  CC50: 16.5 µM
LNCaP; LN-caP, total growth inhibition (cytostatic effect)
  TGI LN-caP: 1.65E−05 Molar
HT-29; HT-29
  GI50: 1.64 µM
HT-29; HT-29, cell killing (cytotoxic effect), read-out: LC50 HT-29
  CC50: 16.5 µM
HT-29; HT-29, total growth inhibition (cytostatic effect)
  TGI HT-29: 1.59E−05 Molar
PANC-1; PANC-1
  GI50: 0.0705 µM
PANC-1; PANC-1, cell killing (cytotoxic effect), read-out: LC50 PANC-1
  CC50: 8.86 µM
PANC-1; PANC-1, total growth inhibition (cytostatic effect)
  TGI PANC-1: 6.82E−07 Molar
SK-BR-3; SK-BR-3
  GI50: 0.0593 µM
SK-BR-3; SK-BR-3, cell killing (cytotoxic effect), read-out: LC50 SK-BR-3
  CC50: 16.5 µM
SK-BR-3; SK-BR-3, total growth inhibition (cytostatic effect)
  TGI SK-BR-3: 3.43E−07 Molar
A-549; A-549
  GI50: 0.126 µM
A-549; A-549, cell killing (cytotoxic effect), read-out: LC50 A-549
  CC50: 1.51 µM
A-549; A-549, total growth inhibition (cytostatic effect)
  TGI A-549: 4.70E−07 Molar
DU-145; DU-145
  GI50: 0.0606 µM
DU-145; DU-145, cell killing (cytotoxic effect), read-out: LC50 DU-145
  CC50: 16.5 µM
DU-145; DU-145, total growth inhibition (cytostatic effect)
  TGI DU-145: 1.34E−07 Molar
SK-MEL-28; MEL-28
  GI50: 0.0997 µM
SK-MEL-28; MEL-28, cell killing (cytotoxic effect), read-out: LC50 MEL-28
  CC50: 1.44 µM
SK-MEL-28; MEL-28, total growth inhibition (cytostatic effect)
  TGI MEL-28: 3.81E−07 Molar
LoVo; LOVO
  GI50: 0.17 µM
LoVo; LOVO, cell killing (cytotoxic effect), read-out: LC50 LOVO
  CC50: 1.52 µM
LoVo; LOVO, total growth inhibition (cytostatic effect)
  TGI LOVO: 5.09E−07 Molar
IGROV-ET; IGROV-ET
  GI50: 0.0824 µM
IGROV-ET; IGROV-ET, cell killing (cytotoxic effect), read-out: LC50 IGROV-ET
  CC50: 12.9 µM
IGROV-ET; IGROV-ET, total growth inhibition (cytostatic effect)
  TGI IGROV-ET: 3.66E−07 Molar

## COc1cc(-c2c3n(c4c(=O)oc5cc(OC(=O)[C@H](CO)NC(=O)OC(C)(C)C)c(OC)cc5c24)CCc2c-3cc(OC)c(OC)c2OC(=O)[C@H](CO)NC(=O)OC(C)(C)C)ccc1OC(=O)[C@H](CO)NC(=O)OC(C)(C)C [Compound 60]
HeLa-APL; Homo sapiens
  GI50: 3.49 µM
HeLa-APL; Homo sapiens, read-out: LC50 HELA-APL, HELA-APL, LC=cell killing (cytotoxic effect)
  CC50: 9.15 µM
HeLa-APL; Homo sapiens, read-out: TGI HELA-APL
  IC (TGI): 9.15 µM
K-562; Homo sapiens, K562, K-562
  GI50: 0.697 µM
K-562; Homo sapiens, K562, K-562, TGI=total growth inhibition (cytostatic effect), read-out: TGI K-562
  IC (TGI): 2.19 µM
K-562; Homo sapiens, K562, read-out: LC50 K-562, K-562, LC=cell killing (cytotoxic effect)
  CC50: 6.87 µM
IGROV; Homo sapiens, read-out: LC50 IGROV, IGROV, LC=cell killing (cytotoxic effect)
  CC50: 9.15 µM
IGROV; Homo sapiens
  GI50: 0.682 µM
IGROV; Homo sapiens, TGI=total growth inhibition (cytostatic effect), read-out: TGI IGROV
  IC (TGI): 3.29 µM
LoVo-Dox; Homo sapiens, LOVO-DOX
  GI50: 2.82 µM
LoVo-Dox; Homo sapiens, read-out: LC50 LOVO-DOX, LOVO-DOX, LC=cell killing (cytotoxic effect)
  CC50: 9.15 µM
LoVo-Dox; Homo sapiens, LOVO-DOX, TGI=total growth inhibition (cytostatic effect), read-out: TGI LOVO-DOX
  IC (TGI): 9.15 µM
HeLa; Homo sapiens, HeLa, read-out: LC50 HELA, HELA, LC=cell killing (cytotoxic effect)
  CC50: 6.13 µM
HeLa; Homo sapiens, HeLa, read-out: TGI HELA
  IC (TGI): 2.51 µM
HeLa; Homo sapiens, HeLa
  GI50: 1.02 µM
LNCaP; Homo sapiens, LNCaP, LN-caP
  GI50: 0.55 µM
LNCaP; Homo sapiens, LNCaP, LN-caP, TGI=total growth inhibition (cytostatic effect), read-out: TGI LN-caP
  IC (TGI): 1.79 µM
LNCaP; Homo sapiens, LNCaP, read-out: LC50 LN-caP, LN-caP, LC=cell killing (cytotoxic effect)
  CC50: 5.25 µM
HT-29; Homo sapiens, HT-29, HT-29
  GI50: 2.42 µM
HT-29; Homo sapiens, HT-29, HT-29, TGI=total growth inhibition (cytostatic effect), read-out: TGI HT-29
  IC (TGI): 5.88 µM
HT-29; Homo sapiens, HT-29, read-out: LC50 HT-29, HT-29, LC=cell killing (cytotoxic effect)
  CC50: 9.15 µM
PANC-1; Homo sapiens, PANC-1, PANC-1
  GI50: 0.747 µM
PANC-1; Homo sapiens, PANC-1, PANC-1, TGI=total growth inhibition (cytostatic effect), read-out: TGI PANC-1
  IC (TGI): 4.4 µM
PANC-1; Homo sapiens, PANC-1, read-out: LC50 PANC-1, PANC-1, LC=cell killing (cytotoxic effect)
  CC50: 9.15 µM
SK-BR-3; Homo sapiens, SK-BR-3, SK-BR-3
  GI50: 0.491 µM
SK-BR-3; Homo sapiens, SK-BR-3, SK-BR-3, TGI=total growth inhibition (cytostatic effect), read-out: TGI SK-BR-3
  IC (TGI): 1.64 µM
SK-BR-3; Homo sapiens, SK-BR-3, read-out: LC50 SK-BR-3, SK-BR-3, LC=cell killing (cytotoxic effect)
  CC50: 8.58 µM
A-549; Homo sapiens, A549, A-549
  GI50: 1.62 µM
A-549; Homo sapiens, A549, A-549, TGI=total growth inhibition (cytostatic effect), read-out: TGI A-549
  IC (TGI): 4.63 µM
A-549; Homo sapiens, A549, read-out: LC50 A-549, A-549, LC=cell killing (cytotoxic effect)
  CC50: 9.15 µM
DU-145; Homo sapiens, DU-145, DU-145
  GI50: 1.18 µM
DU-145; Homo sapiens, DU-145, DU-145, TGI=total growth inhibition (cytostatic effect), read-out: TGI DU-145
  IC (TGI): 2.65 µM
DU-145; Homo sapiens, DU-145, read-out: LC50 DU-145, DU-145, LC=cell killing (cytotoxic effect)
  CC50: 5.97 µM
SK-MEL-28; Homo sapiens, SK-MEL-28, MEL-28
  GI50: 1.17 µM
SK-MEL-28; Homo sapiens, SK-MEL-28, MEL-28, TGI=total growth inhibition (cytostatic effect), read-out: TGI MEL-28
  IC (TGI): 4.14 µM
SK-MEL-28; Homo sapiens, SK-MEL-28, read-out: LC50 MEL-28, MEL-28, LC=cell killing (cytotoxic effect)
  CC50: 9.15 µM
LoVo; Homo sapiens, LoVo, read-out: LC50 LOVO, LOVO, LC=cell killing (cytotoxic effect)
  CC50: 7.94 µM
LoVo; Homo sapiens, LoVo
  GI50: 1.61 µM
LoVo; Homo sapiens, LoVo, TGI=total growth inhibition (cytostatic effect), read-out: TGI LOVO
  IC (TGI): 3.58 µM
IGROV-ET; Homo sapiens, IGROV-ET
  GI50: 2.56 µM
IGROV-ET; Homo sapiens, IGROV-ET, TGI=total growth inhibition (cytostatic effect), read-out: TGI IGROV-ET
  IC (TGI): 6.16 µM
IGROV-ET; Homo sapiens, read-out: LC50 IGROV-ET, IGROV-ET, LC=cell killing (cytotoxic effect)
  CC50: 9.15 µM
